The values below are quoted from earlier work in patent publication US10481160B2, “Combined anticancer drug sensitivity-determining marker” (KEIO UNIVERSITY, priority 2012, dated 2019).

For the data set, the system named is advanced/recurrent colorectal cancer.
For the compound `O=C1[O][Pt]2([NH][C@@H]3CCCC[C@H]3[NH]2)[O]C1=O` [L-OHP, Oxaliplatin], the “anti-tumor effect on colorectal cancer” value is listed as “exhibits anti-tumor effect”. As to `[NH2][Pt]([NH2])([Cl])[Cl]` [CDDP, cisplatin], the “anti-tumor effect on colorectal cancer” value is recorded as “ineffective”. Take `N.N.O=C([O-])C1(C(=O)[O-])CCC1.[Pt+2]` [CBDCA, carboplatin]: the “anti-tumor effect on colorectal cancer” value was “ineffective”.
